Measurements taken from US11371994B2, “Phosphorylated Akt-specific capture agents, compositions, and methods of using and making” (California Institute of Technology, priority 2013, dated 2022).
Entries after “also recorded” stand apart in the source; their conditions may differ. Square brackets hold non-standard residues; d marks the D form. Ends that are not written are not given here. * marks the point of attachment. S3 = D-Pra clicked to acylated azidolysine-PEG2-biotin, with 5-azido-pentanoic acid; 5FAM = O=C1OC2(c3ccc(O)cc3Oc3cc(O)ccc32)c2ccc(C(=O)*)cc21; 5‑azidopentanoyl = [N-]=[N+]=NCCCCC(=O)*; Lys(N3) = [N-]=[N+]=NCCCC[C@H](N)C(=O)O; Peg2 = PEG spacer (Fmoc-NH-(PEG)2-OH); dPra = C#CC[C@@H](N)C(=O)O; Ahx = NCCCCCC(=O)O

Assays:
[1] = molecular target: T1, Akt (Homo sapiens, UniProt P31751); assay: OVCAR3 lysate pull-down (immunoprecipitation) assay; assay type: binding; settings: for immunoprecipitation of Akt from OVCAR3 cell lysate: eluents stained with pan-Akt antibody
T1 construct: endogenous in cells; host or cells: OVCAR3
Description: OVCAR3 cells (ATCC) were grown in RPMI-1640 media containing 20% fetal bovine serum. Passage three cells were grown to ˜80% confluence. Cells were lysed with lysis buffer (10 mM Tris-Cl (pH=7.5), 100 mM NaCl, 1% (v/v) Triton X-100, 0.1% SDS (w/v), 0.5% deoxycholate, 1 mM DTT, 1 mM EDTA, 1× PhosStop phosphatase inhibitors (Roche), 1× Complete protease inhibitors (Roche)) and the amount of protein measured using BCA Protein Assay Kit (Pierce Biotechnologies, Inc). Streptavidin-agarose resin solution (EMD) was swelled in TBST (25 mM tris chloride, pH=7.5, 150 mM NaCl, 0.05% Tween-20). Each of the biotinylated ligands was immobilized on the Streptavidin-agarose resin by adding 7.2 μL of 1 mM ligand stock (DMSO) to 10 μL of the swelled streptavidin-agarose resin. For the blank control, the resin was treated with 7.2 μL of 1 mM biotinylated acyl glycine. […] After shaking overnight at 4° C., 50 μM D-biotin was added to the resin to block any remaining sites. The resin was washed with TBST five times, for fifteen minutes each. The resin was then swelled in binding buffer for two hours. To each of the immobilized ligands, 200 μL OVCAR3 cell lysate (1.9 mg/ml) was added. The tubes were shaken at 4° C. for 18 hours. The beads were extensively washed, three times for fifteen minutes in binding buffer, three times (fifteen minutes) in TBST, and three times (fifteen minutes) in TBS to remove unbound proteins. The resin bound proteins were eluted by adding 40 μL of 2×SDS-PAGE sample loading buffer (BioRad) and heating at 95° C. for five minutes. A 1:10 diluted sample of lysate in sample loading buffer was prepared by mixing 1 μL of the sample with 9 μL sample loading buffer and denaturing the sample by heating at 95° C. for five minutes. 10 μL of each sample was loaded on a 12% SDS-PAGE gels (BioRad) and run for 80 minutes at 110 volts. Three identical gels were loaded and run at the same time. One gel was used for Coomassie staining with Coomassie Fluor Orange Protein Gel Stain (Molecular Probes) following the manufacturer's protocol. The two other gels were transferred to nitrocellulose membranes by the semidry transfer method, blocked for two hours at 4° C. with 5% non-fat milk, and treated overnight at 4° C. with a 1:1000 dilution of pan-Akt rabbit monoclonal antibody (Cell Signaling Technology) and a 1:1000 dilution of pS473 Akt rabbit monoclonal antibody (Cell Signaling Technology), respectively, in 0.5% non-fat milk. The membranes were washed and treated for an hour with a 1:10,000 dilution of monoclonal mouse anti-rabbit-HRP secondary antibody (Cell Signaling Technology) in 0.5% milk. After five washes of five minutes each with TBST and one wash of five minutes with TBS, the blots were developed with West Dura ECL substrate (Thermo Scientific) and imaged on film.

[2] = molecular target: T2, Akt2 (Homo sapiens, UniProt P31751); settings: read-out: equilibrium dissociation constant KD; SPR, Akt2 protein as analyte, 1:1 binding model, 10° C.
Description: A Biacore T100 machine was used for SPR experiments. A Streptavidin Chip (Series S, G.E. Healthcare) was conditioned as per manufacturer's recommendation. A stock of 1 mM biotinylated ligand was diluted into HBSP+ Buffer (G.E. Healthcare) to a final concentration of 100 nM and ˜150 RU was immobilized on the chip. Serial dilutions of the Akt2 protein were made in HBSP+ buffer for the experiment with the immobilized N-tL. The solution was flowed over the chip at 50 μL/min. Binding and dissociation were carried out at 10° C. with a contact time of 350 sec, a dissociation time of 390 sec, and a stabilization time of 200 sec, with buffer blanks between each concentration. The response was double corrected, using an unmodified reference flow cell and the response for the 0 concentration of Akt2 on the sample flow cell. The data was fitted to the kinetic Langmuir 1:1 binding model using the Biacore Evaluation software for T100 to calculate the dissociation constant.

[3] = molecular target: T2, Akt2; assay: Single component ELISA, PCC agent as capture or detection agent (relative affinity); assay type: binding; parameters: purchased Abcam
Excerpt: FIG. 23: A. ELISA assays in which the PCC Agents are utilized as either as surface-localized capture agents (for N-tL, C-tL) or as the detection agent (for mono-L, bi-L). Such assays provide relative affinity measurements, which are given as EC50 values in the key. […] C. C-tL distinguishes the full length Akt2 from isoform proteins Akt1 and Akt3. D. The 32 amino acid long C terminal fragment from Akt2, Akt1 and Akt3. The hydrophobic motif is highlighted in blue. pS refers to phospho-serine. […] F. Selectivity assays: Biotinylated ligands or biotinylated pS473 antibody is immobilized on streptavidin-agarose and treated with OVCAR3 cell lysate. The eluents are stained with a pan-Akt antibody or pS473 Akt antibody.
1.25 μM biotinylated ligand was prepared by diluting the 1 mM stock in binding buffer (25 mM tris chloride, pH=7.4, 150 mM NaCl, 0.1% BSA, 0.05% Tween 20). The prepared ligand solution or 0.125% DMSO in buffer (buffer control) was immobilized on a High Capacity Streptavidin 96 well plate (Thermo Scientific). After washing away the excess ligand, the plate was blocked overnight with 1% BSA/25 mM tris chloride, pH=7.4/150 mM NaCl, 0.05% Tween 20. 2.5 μM solutions of the His6 (SEQ ID NO:28) tagged target phosphopeptide epitope Akt2 amino acids 450-481, His6 (SEQ ID NO:28) tagged Akt1 amino acids 449-480, His6 (SEQ ID NO:28) tagged Akt3 amino acids 448-479 were added to each of the wells. Following three washes with the binding buffer, the plate was treated for an hour with a 1:1000 dilution of anti His6 (SEQ ID NO:28) mouse monoclonal antibody. A 1:10,000 dilution of goat anti mouse antibody-Horse Radish Peroxide conjugate in binding buffer was added to the wells. The plates were washed four times, five minutes each, with 0.05% Tween 20/TBS (25 mM tris chloride, pH=7.5, 150 mM NaCl) and once with TBS (25 mM tris chloride, pH=7.5, 150 mM NaCl). Color was developed by adding TMB substrate (KPL) to each well. The reaction was quenched with 0.5 M H2SO4. The A450 measured on a 96-well plate reader. The Net A450 was obtained by subtracting the absorbance value for the blank control (no immobilized ligand) from each of the triplicate values obtained for the ligand-epitope interaction. The selectivity assay with full length His6 (SEQ ID NO:28) tagged Akt1, Akt2 and Akt3 was performed following the same protocol, using 25 nM protein instead of 2.5 μM His6 tagged peptide epitope.

[4] = molecular target: T2, Akt2; assay: Non-radioactive kinase assay, phosphorylation of GSK-3α/β fusion protein; assay type: biochemical; parameters: purchased Abcam; settings: relative to DMSO control
Description: The non-radioactive kinase assay kit for Akt2 was purchased from Cell Signaling. Ligand solutions were made in DMSO. Kinase reactions were set up in 1× kinase buffer (25 mM trisHCl (pH 7.5), 10 mM MgCl2, 0.01% Triton-X, 1× Complete protease inhibitor (Roche), 1× Phosstop phosphatase inhibitor (Roche)), each 25 μL reaction mixture containing 400 ng Akt2, 400 ng GST-GSK-3α/β fusion protein, […] and 0.5 μL of peptide solutions in DMSO or DMSO only. Reactions were allowed to proceed for 30 minutes at 30° C. A reaction mixture was also prepared using a 1:2.5 dilution of anti pS473 antibody (Cell Signaling) in the kinase buffer instead of the peptide ligand or DMSO. The reactions were quenched by adding 12.5 μL of 2×SDS sample loading buffer and heating at 95° C. for five minutes. 10 μL from each sample was loaded on an any kD SDS gel (BioRad) and run for an hour at 110 volts. Following semidry transfer of the gel to a nitrocellulose membrane, the membrane was blocked in 5% nonfat milk/TBST for an hour at 4° C., and treated overnight at 4° C. with a 1:200 dilution of Phospho GSK-3α/β Ser (21/9) rabbit antibody (Cell Signaling) in 0.5% milk/TBST. Following washes, the membrane was treated with a 1:2000 dilution of mouse anti-rabbit-HRP antibody for an hour at 4° C. After four five minute washes with TBST, and one five minute wash with TBS, the membrane was treated with West Dura ECL substrate (Thermo Scientific) and imaged on film.

[5] = tested on: SKOV3 ovarian cancer cells; assay: Western blots of treated SKOV3 cells (Akt signaling pathway); assay type: cell-based
Description: Western blots were performed according to standard protocols. Briefly, cells were lysed with cell lysis buffer (Cell Signaling Technology) containing protease and phosphatase inhibitors (Cell Signaling Technology). Cell lysates were quantified with a Bradford protein assay (Thermo Scientific) and prepared for gel electrophoresis in Laemmli sample buffer and reducing agent. 20 μg of cell lysate were added to precast polyacrylamide gels (Bio-Rad) and proteins were separated by electrophoresis followed by transfer to PVDF membrane. Membranes were then blocked and probed with primary antibodies followed by horseradish peroxidase-conjugated secondary antibodies. The following antibodies were used according to manufacturer protocol: p-GSK3β (Cell Signaling, 9323), GSK3 β (Cell Signaling, 12456), AKT (Cell Signaling, 4691), p-AKT (S473) (Cell Signaling, 4060), Actin (Cell Signaling, 8456), HRP-linked Anti-rabbit IgG (Cell Signaling, 7074). The bands were visualized by chemiluminescence (Thermo Scientific).

[6] = tested on: OVCAR3 cells; assay: XTT cell viability assay; assay type: cell-based; settings: 50 μM
Description: (§1) The XTT assay kit was purchased from Cell Signaling Technology (#9095) and used according to manufacturer protocol. Briefly, 1×10^4 cells were seeded in a 96-well plate. The following day, cells were serum starved and treated with capture agent. Following treatment, the XTT tetrazolium salt was added to the media and after 1 hour the absorbance at 450 nm was measured in a 96-well plate reader.

[7] = tested on: SKOV3 cells; assay: XTT cell viability assay; assay type: cell-based; settings: 50 μM
Description: as §1

T1 sequence (P31751 whole entry): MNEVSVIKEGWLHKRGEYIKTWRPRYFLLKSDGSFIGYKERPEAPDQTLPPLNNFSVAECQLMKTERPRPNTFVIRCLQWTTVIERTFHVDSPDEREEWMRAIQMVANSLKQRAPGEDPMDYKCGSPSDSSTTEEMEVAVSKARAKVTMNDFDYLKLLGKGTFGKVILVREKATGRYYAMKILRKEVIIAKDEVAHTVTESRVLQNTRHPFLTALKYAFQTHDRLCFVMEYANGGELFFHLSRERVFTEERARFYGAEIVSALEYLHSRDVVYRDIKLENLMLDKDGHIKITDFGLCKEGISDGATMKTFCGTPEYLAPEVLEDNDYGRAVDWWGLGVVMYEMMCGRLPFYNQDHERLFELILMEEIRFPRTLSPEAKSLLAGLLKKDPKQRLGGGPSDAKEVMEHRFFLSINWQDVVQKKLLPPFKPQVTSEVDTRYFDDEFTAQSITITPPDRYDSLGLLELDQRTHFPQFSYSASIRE
T2 sequence (P31751 whole entry): as above

| Molecule | immunoprecipitation of phosphorylated Akt from OVCAR3 cell lysate ([1]; eluents stained with pS473 Akt antibody) | immunoprecipitation of Akt from OVCAR3 cell lysate [1] | immunoprecipitation of Akt from OVCAR3 cell lysate ([1]; listed as N-tri1) | Kd [2] [µM] | EC50 ([3]; read-out: EC50 from single component ELISA) [µM] | affinity ([3]; strongest binding triligand) [nM] | influence on Akt2 kinase activity (p-GSK-3α/β level) [4] | p-Akt level ([5]; 50 μM, time course) | p-GSK-3β level ([5]; 50 μM, time course) | cell viability (XTT) [6] | cell viability (XTT) [7] | phospho-GSK-3β level after pretreatment and EGF stimulation ([5]; 50 μM, 1, 6 and 12 hours pretreatment, then EGF 10 minutes) | phospho-GSK-3β level after pretreatment and EGF stimulation ([5]; 50 μM, 24 hours pretreatment, then EGF) |
| --- | --- | --- | --- | --- | --- | --- | --- | --- | --- | --- | --- | --- | --- |
| CC(=O)NC(CCCCn1cc(C[C@@H](NC(=O)[C@H](CCCCn2cc(C[C@@H](NC(=O)[C@@H](Cc3ccccc3)NC(=O)[C@@H](Cc3ccc(O)cc3)NC(=O)CNC(=O)[C@@H](CC(N)=O)NC(=O)[C@@H](Cc3c[nH]cn3)NC(=O)[C@H](CCCCn3cc(C[C@@H](NC(C)=O)C(=O)N[C@H](Cc4ccc(O)cc4)C(=O)N[C@H](Cc4ccc(O)cc4)C(=O)N[C@H](CCCNC(=N)N)C(=O)N[C@H](Cc4ccccc4)C(=O)NCC(N)=O)nn3)NC(C)=O)C(=O)O)nn2)NC(C)=O)C(=O)N[C@H](Cc2c[nH]c3ccccc23)C(=O)N[C@H](CCCCN)C(=O)N[C@@H](C(=O)N[C@H](CCCCN)C(=O)N[C@H](CC(C)C)C(N)=O)C(C)C)nn1)C(=O)NCCOCCOCCOCCC(=O)NCCNC(=O)CCCC[C@@H]1SC[C@@H]2NC(=O)N[C@@H]21 (some centres unmarked) [N-tL] | immunoprecipitate comparable amounts of active pS473 Akt | immunoprecipitates more Akt, irrespective of its phosphorylation state | more efficient; also recorded: immunoprecipitate Akt2 from OVCAR3 cells | 0.025 | 0.019 | ~20 | activate Akt above baseline; also recorded: activate Akt2 |  |  |  |  |  |  |
| tri_a: Akt-activating N-terminal triligand, conjugated to HIV TAT peptide via PEG spacers for cell assays (FIG. 28, 33A) (peptide 1 WKVKL; peptide 2 HNGYF; peptide 3 XYYRFG; peptide 4 GRKKRRQRRRPPQQ; not fully specified; D-residues; non-natural residues) |  |  |  |  |  |  | activate | initially increases and then steadily decreases over time | highest level of GSK3B phosphorylation is seen after 1 hour treatment; also recorded: clear increase in the p-GSK-3β level relative to the untreated and EGF-stimulated cells | significant increase in viability after 1 day treatment followed by a decline; also recorded: sharp increase after 24 hours is followed by a steady decrease before finally stabilizing | significant increase in viability after 1 day treatment followed by a decline; also recorded: initial spike in cell viability after 24 hours, followed by a linear decrease with time |  |  |
| tri_i: Akt-inhibiting C-terminal triligand, TAT-modified, with fluorescein label (FIG. 31, 35a) (peptide 1 Ac-[Lys(N3)][dH][dD]GG[dF]; peptide 2 S3-[dW][dK][dV][dK]; peptide 3 {5FAM-Ahx-Cys-Peg2}-[dH][dN]G[dY][dF][dPra]; peptide 4 {5‑azidopentanoyl-Peg2}-GRKKRRQRRRPPQQ-NH2; not fully specified (C-terminus); also: arms joined by triazoles, fluorescein label (Peg2-Cys-Ahx-5-carboxyfluorescein) coupled via DBCO-maleimide to TAT) |  |  |  |  |  |  | inhibit |  |  | significant decrease in viability after 1 day treatment; also recorded: initial drop in cell viability after 24 hours, followed by an increase before finally decreasing again | significant decrease in viability after 1 day treatment; also recorded: initial drop in cell viability and remain consistently lower than untreated cells for 5 days | less phospho-GSK-3β than EGF stimulation alone; also recorded: less phospho-GSK3-β than untreated cells stimulated with EGF alone | dramatic increase in levels of phospho-GSK3-β |
